From ChEMBL document CHEMBL3124848, “Crystal structures of human transthyretin complexed with glabridin” (J Med Chem, 2014)

Molecular target: Transthyretin (Homo sapiens, UniProt P02766, V50M)
Test: Inhibition of transthyretin V30M mutant (unknown origin) expressed in Escherichia coli assessed as inhibition of sodium acetate-mediated aggregation preincubated for 30 mins followed by sodium acetate addition measured after 96 hrs by thioflavin T assay

Structure (SMILES) | IC50 [µM]
Oc1ccc([C@@H]2COc3cc(O)ccc3C2)cc1 | 13
O=c1c(-c2ccc(O)cc2)coc2cc(O)ccc12 [DAIDZEIN] | 16
O=c1c(-c2ccc(O)cc2)coc2cc(O)cc(O)c12 [GENISTEIN] | 7.8
CC1(C)C=Cc2c(ccc3c2OC[C@@H](c2ccc(O)cc2O)C3)O1 [GLABRIDIN] | 6.4
O=c1cc(-c2ccc(O)c(O)c2)oc2cc(O)cc(O)c12 [LUTEOLIN] | 6.4
